Earlier results, collected in patent US20240390366A1, “FORMULATION AND METHOD FOR TOPICAL TREATMENT OF MYCOBACTERIUM ULCERANS IN BURULI ULCERS” (priority 2021, published 2024).

## CC(C)/N=c1\cc2n(-c3ccc(Cl)cc3)c3ccccc3nc-2cc1Nc1ccc(Cl)cc1 [Clofazimine, clofazimine]
  solubility in water: practically insoluble
